Laboratory results as given in patent US20150105252A1, “SUBSTITUTED PYRAZOLES AS HERBICIDES” (E I DU PONT DE NEMOURS AND COMPANY, priority 2013, published 2015).

Columns and labels:
barnyardgrass [1] = test: Test A preemergence; format: in vivo, Echinochloa crus-galli; conditions: 0 to 100 scale
Summary of the method: (§1)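 After sowing in a sand–loam mix, pots received compound preemergence by directed soil spray, or postemergence once plants reached the one- to two-leaf stage (2–10 cm). Formulation contained surfactant in a non-phytotoxic solvent. Injury was scored visually after ~10 greenhouse days, 0–100 scale.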

foxtail, giant [2] = test: Test A preemergence; format: in vivo, Setaria faberii; conditions: 0 to 100 scale
Summary of the method: as §1

corn [3] = test: Test A preemergence; format: in vivo, Zea mays; conditions: 0 to 100 scale
Summary of the method: as §1

foxtail, giant [4] = test: Test A postemergence; format: in vivo, Setaria faberii
Summary of the method: as §1

morningglory = test: Test A postemergence; format: in vivo, Ipomoea spp.
Summary of the method: as §1

wheat = test: Test A postemergence; format: in vivo, Triticum aestivum
Summary of the method: as §1

corn [5] = test: Test C preemergence; format: in vivo, Zea mays
Summary of the method: (§2)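 Seeds sown in loam–sand blend and treated preemergence with test chemicals in non-phytotoxic solvent with surfactant; postemergence plants in peat-based medium, treated at 2–18 cm (1- to 4-leaf stage). Greenhouse 13 to 15 days, then visual rating versus controls, 0 (no effect) to 100 (complete control).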

crabgrass, large = test: Test C preemergence; format: in vivo, Digitaria sanguinalis
Source text: (§3) Seeds of plant species selected from blackgrass (Alopecurus myosuroides), ryegrass, Italian (Italian ryegrass, Lolium multiflorum), wheat (winter wheat, Triticum aestivum), galium (catchweed bedstraw, Galium aparine), corn (Zea mays), crabgrass, large (large crabgrass, Digitaria sanguinalis), foxtail, giant (giant foxtail, Setaria faberii), johnsongrass (Sorghum halepense), lambsquarters (Chenopodium album), morningglory (Ipomoea coccinea), nutsedge, yellow (yellow nutsedge, Cyperus esculentus), pigweed (redroot pigweed, Amaranthus retroflexus), ragweed (common ragweed, Ambrosia elation), soybean (Glycine max), barnyardgrass (Echinochloa crus-galli), oilseed rape (Brassica napus), waterhemp (common waterhemp, Amaranthus rudis), oat, wild (wild oat, Avena fatua), kochia (Kochia scoparia), Surinam grass (Brachiaria decumbens), foxtail, green (green foxtail, Setaria viridis), goosegrass (Eleusine indica), bromegrass, downy (downy bromegrass, Bromus tectorum), nightshade (eastern black nightshade, Solanum ptycanthum), cocklebur (common cocklebur, Xanthium strumarium), cupgrass, woolly (woolly cupgrass, Eriochloa villosa), bermudagrass (Cynodon dactylon), sunflower, (common oilseed sunflower, Helianthus annuus), Russian thistle (Salsola kali), and velvetleaf (Abutilon theophrasti) were planted into a blend of loam soil and sand and treated preemergence with test chemicals formulated in a non-phytotoxic solvent mixture which included a surfactant.
(§4) At the same time, plants selected from these crop and weed species and also chickweed (common chickweed, Stellaria media), canarygrass (littleseed canarygrass, Phalaris minor), and deadnettle (henbit deadnettle, Lamium amplexicaule), were planted in pots containing Redi-Earth® planting medium (Scotts Company, 14111 Scottslawn Road, Marysville, Ohio 43041) comprising spaghnum peat moss, vermiculite, wetting agent and starter nutrients and treated with postemergence applications of test chemicals formulated in the same manner. Plants ranged in height from 2 to 18 cm (1- to 4-leaf stage) for postemergence treatments. Treated plants and controls were maintained in a greenhouse for 13 to 15 days, after which time all species were compared to controls and visually evaluated. Plant response ratings, summarized in Table C, are based on a scale of 0 to 100 where 0 is no effect and 100 is complete control. A dash (-) response means no test result.

foxtail, giant [6] = test: Test C preemergence; format: in vivo, Setaria faberii
Source text: as §3, §4

johnsongrass = test: Test C preemergence; format: in vivo, Sorghum halepense
Summary of the method: as §2

pigweed = test: Test C preemergence; format: in vivo, Amaranthus retroflexus
Summary of the method: as §2

soybean = test: Test C preemergence; format: in vivo, Glycine max
Summary of the method: as §2

barnyardgrass [7] = test: Test C preemergence; format: in vivo, Echinochloa crus-galli
Summary of the method: as §2

waterhemp = test: Test C preemergence; format: in vivo, Amaranthus rudis
Summary of the method: as §2

velvetleaf = test: Test C preemergence; format: in vivo, Abutilon theophrasti
Source text: as §3, §4

[8] = Preemergence, 500 g ai/ha, 0 no effect, 100 complete control
[9] = preemergence, 125 g ai/ha, visual injury, approx. 10 days
[10] = Postemergence, 500 g ai/ha, visual rating after approx. 10 days, 0 to 100 scale (0 no effect, 100 complete control)
[11] = postemergence, 125 g ai/ha, about 10 days, visual rating on 0 to 100 scale (0 no effect, 100 complete control)
[12] = preemergence, 31 g ai/ha, visual rating, scale 0 to 100 (0 no effect, 100 complete control), 13 to 15 days
[13] = preemergence, 62 g ai/ha, 13 to 15 days, scale 0 to 100, 0 = no effect, 100 = complete control
[14] = preemergence, 125 g ai/ha, scale 0 to 100, 0 is no effect, 100 is complete control

CCc1cc(C(=O)NCC(F)(F)F)nn1Cc1ccnc(C(F)(F)F)c1 [Compound 78, 5-ethyl-N-(2,2,2-trifluoroethyl)-1-[[(2-trifluoromethyl)-4-pyridinyl]methyl]-1H-pyrazole-3-carboxamide]
Barnyardgrass plant response rating (barnyardgrass [1]; [8]): 100 | Barnyardgrass plant response rating (barnyardgrass [1]; [9]): 100 | Foxtail, Giant plant response rating (foxtail, giant [2]; [8]): 100 | Foxtail, Giant plant response rating (foxtail, giant [2]; [9]): 100 | Corn plant response rating (corn [3]; [8]): 70 | Corn plant response rating (corn [3]; [9]): 60 | Foxtail, Giant plant response rating (foxtail, giant [4]; [10]): 100 | Foxtail, Giant plant response rating (foxtail, giant [4]; [11]): 90 | Morningglory plant response rating (morningglory; [10]): 100 | Morningglory plant response rating (morningglory; [11]): 100 | Wheat plant response rating (wheat; [10]): 80 | Wheat plant response rating (wheat; [11]): 70 | Plant response rating (scale of 0 to 100), Corn (corn [5]; Preemergence, 250 g ai/ha): 98 | Corn plant response rating (corn [5]; [12]): 60 | Plant response rating, Corn (corn [5]; [13]): 65 | Corn plant response rating (corn [5]; [14]): 95 | Plant response rating (scale of 0 to 100), Crabgrass, Large (crabgrass, large; Preemergence, 250 g ai/ha): 100 | Crabgrass, Large plant response rating (crabgrass, large; [12]): 100 | Plant response rating, Crabgrass, Large (crabgrass, large; [13]): 100 | Crabgrass, Large plant response rating (crabgrass, large; [14]): 100 | Plant response rating (scale of 0 to 100), Foxtail, Giant (foxtail, giant [6]; Preemergence, 250 g ai/ha): 100 | Foxtail, Giant plant response rating (foxtail, giant [6]; [12]): 90 | Plant response rating, Foxtail, Giant (foxtail, giant [6]; [13]): 98 | Foxtail, Giant plant response rating (foxtail, giant [6]; [14]): 98 | Plant response rating (scale of 0 to 100), Johnsongrass (johnsongrass; Preemergence, 250 g ai/ha): 100 | Johnsongrass plant response rating (johnsongrass; [12]): 85 | Plant response rating, Johnsongrass (johnsongrass; [13]): 95 | Johnsongrass plant response rating (johnsongrass; [14]): 100 | Plant response rating (scale of 0 to 100), Pigweed (pigweed; Preemergence, 250 g ai/ha): 100 | Pigweed plant response rating (pigweed; [12]): 100 | Plant response rating, Pigweed (pigweed; [13]): 100 | Pigweed plant response rating (pigweed; [14]): 100 | Plant response rating (scale of 0 to 100), Soybean (soybean; Preemergence, 250 g ai/ha): 98 | Soybean plant response rating (soybean; [12]): 98 | Plant response rating, Soybean (soybean; [13]): 98 | Soybean plant response rating (soybean; [14]): 98 | Plant response rating (scale of 0 to 100), Barnyardgrass (barnyardgrass [7]; Preemergence, 250 g ai/ha): 100 | Barnyardgrass plant response rating (barnyardgrass [7]; preemergence, 31 g ai/ha, scale 0 to 100 (0 no effect, 100 complete control), 13 to 15 days): 100 | Plant response rating, Barnyardgrass (barnyardgrass [7]; [13]): 100 | Barnyardgrass plant response rating (barnyardgrass [7]; [14]): 100 | Plant response rating (scale of 0 to 100), Waterhemp (waterhemp; Preemergence, 250 g ai/ha): 100 | Waterhemp plant response rating (waterhemp; [12]): 100 | Plant response rating, Waterhemp (waterhemp; [13]): 100 | Waterhemp plant response rating (waterhemp; [14]): 100 | Plant response rating (scale of 0 to 100), Velvetleaf (velvetleaf; Preemergence, 250 g ai/ha): 100 | Velvetleaf plant response rating (velvetleaf; [12]): 80 | Plant response rating, Velvetleaf (velvetleaf; [13]): 100 | Velvetleaf plant response rating (velvetleaf; [14]): 100
